Peptide text beside a SMILES is read from it.
What was measured:
intact NDSK = target: T1, intact NDSK (Homo sapiens, UniProt P02671+P02675+P02679); assay: Equilibrium binding of 125-I D1 Peptide, intact NDSK
T1 sequence (P02671 20-70 limits assumed): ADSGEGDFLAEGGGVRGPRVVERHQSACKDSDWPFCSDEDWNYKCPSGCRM
T1 sequence (P02675 31-148 limits assumed): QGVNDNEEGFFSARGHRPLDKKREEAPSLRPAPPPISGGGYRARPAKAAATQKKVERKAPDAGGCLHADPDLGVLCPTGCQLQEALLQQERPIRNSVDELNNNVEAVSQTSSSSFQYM
T1 sequence (P02679 27-104 limits assumed): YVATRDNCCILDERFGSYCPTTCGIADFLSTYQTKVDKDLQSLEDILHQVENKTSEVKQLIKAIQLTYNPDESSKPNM

thrombin time = assay: Thrombin time test; conditions: stated as 'could be caused'; no experiment described
[1] = target: T2, thrombin-treated NH2-terminal disulfide knot (NDSK) (Homo sapiens, UniProt P02671+P02675+P02679); assay: Equilibrium binding of 125-I D1 Peptide (equilibrium dialysis / Sephadex gel equilibrium), thrombin-treated NDSK
T2 sequence (P02671 36-70 limits assumed): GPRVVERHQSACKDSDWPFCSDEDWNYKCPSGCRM
T2 sequence (P02675 45-148 limits assumed): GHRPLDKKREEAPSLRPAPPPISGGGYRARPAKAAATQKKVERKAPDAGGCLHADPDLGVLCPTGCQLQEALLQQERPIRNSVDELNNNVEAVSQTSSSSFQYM
T2 sequence (P02679 27-453): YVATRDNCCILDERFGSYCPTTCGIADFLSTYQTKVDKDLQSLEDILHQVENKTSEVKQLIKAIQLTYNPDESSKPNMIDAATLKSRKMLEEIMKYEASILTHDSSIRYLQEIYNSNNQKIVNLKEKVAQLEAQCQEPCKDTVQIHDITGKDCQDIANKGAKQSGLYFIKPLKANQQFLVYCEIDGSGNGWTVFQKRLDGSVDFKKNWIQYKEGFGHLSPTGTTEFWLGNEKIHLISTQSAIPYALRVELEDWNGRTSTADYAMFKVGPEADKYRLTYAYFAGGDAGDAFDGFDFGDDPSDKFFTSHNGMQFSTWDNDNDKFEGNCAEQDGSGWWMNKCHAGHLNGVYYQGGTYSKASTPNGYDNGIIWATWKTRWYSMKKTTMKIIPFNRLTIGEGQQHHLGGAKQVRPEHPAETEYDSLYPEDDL

fibrinogen = target: T3, fibrinogen (Homo sapiens, UniProt P02671+P02675+P02679); assay: Delay of onset of fibrin polymerization, fibrinogen in the presence of thrombin; assay type: biochemical; conditions: 1:1 ratio of D1 Peptide to fibrinogen in the presence of thrombin
T3 sequence (P02671 36-629 isoform P02671-2): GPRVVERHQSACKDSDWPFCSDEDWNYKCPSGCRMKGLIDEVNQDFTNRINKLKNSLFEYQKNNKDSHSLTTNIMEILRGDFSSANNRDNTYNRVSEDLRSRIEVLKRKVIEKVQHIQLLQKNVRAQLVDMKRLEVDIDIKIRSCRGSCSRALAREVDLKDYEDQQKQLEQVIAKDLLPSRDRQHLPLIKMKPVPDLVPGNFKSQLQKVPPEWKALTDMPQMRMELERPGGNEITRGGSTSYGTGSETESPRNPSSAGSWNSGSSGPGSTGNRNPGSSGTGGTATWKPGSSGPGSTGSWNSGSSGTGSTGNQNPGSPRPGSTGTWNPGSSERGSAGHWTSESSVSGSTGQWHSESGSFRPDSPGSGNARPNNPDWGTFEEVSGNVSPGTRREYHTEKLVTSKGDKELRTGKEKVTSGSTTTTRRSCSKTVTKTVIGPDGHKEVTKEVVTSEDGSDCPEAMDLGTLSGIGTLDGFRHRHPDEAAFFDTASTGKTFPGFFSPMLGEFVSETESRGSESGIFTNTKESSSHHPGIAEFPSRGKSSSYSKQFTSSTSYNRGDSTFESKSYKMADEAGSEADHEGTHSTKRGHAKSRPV
T3 sequence (P02675 45-491): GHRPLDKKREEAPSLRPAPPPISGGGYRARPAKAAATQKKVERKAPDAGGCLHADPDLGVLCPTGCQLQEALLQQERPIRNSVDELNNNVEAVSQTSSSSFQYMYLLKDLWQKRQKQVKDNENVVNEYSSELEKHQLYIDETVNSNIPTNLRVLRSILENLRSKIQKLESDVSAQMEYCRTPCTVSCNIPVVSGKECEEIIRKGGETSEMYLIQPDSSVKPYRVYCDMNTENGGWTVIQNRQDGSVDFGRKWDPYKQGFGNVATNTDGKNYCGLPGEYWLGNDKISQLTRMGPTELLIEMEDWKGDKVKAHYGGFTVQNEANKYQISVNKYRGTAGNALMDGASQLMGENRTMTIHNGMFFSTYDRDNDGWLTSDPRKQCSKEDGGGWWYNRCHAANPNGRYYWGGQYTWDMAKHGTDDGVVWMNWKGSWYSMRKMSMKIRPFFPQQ
T3 sequence (P02679 27-437 isoform P02679-2): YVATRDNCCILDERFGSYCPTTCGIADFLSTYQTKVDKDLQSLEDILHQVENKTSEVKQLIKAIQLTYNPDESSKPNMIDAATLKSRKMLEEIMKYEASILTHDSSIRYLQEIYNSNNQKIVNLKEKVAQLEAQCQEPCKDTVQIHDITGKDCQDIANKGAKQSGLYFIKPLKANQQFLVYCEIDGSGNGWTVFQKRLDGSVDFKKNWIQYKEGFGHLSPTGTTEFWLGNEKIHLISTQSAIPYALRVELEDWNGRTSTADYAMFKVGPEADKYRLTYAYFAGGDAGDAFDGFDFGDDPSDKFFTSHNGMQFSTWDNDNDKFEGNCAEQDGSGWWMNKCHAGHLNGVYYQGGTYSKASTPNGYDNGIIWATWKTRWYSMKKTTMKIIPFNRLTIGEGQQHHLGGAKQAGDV

CC[C@H](C)[C@H](NC(=O)[C@H](CCCCN)NC(=O)[C@H](CCSC)NC(=O)[C@@H](NC(=O)[C@@H](NC(=O)[C@H](CCCCN)NC(=O)[C@H](CCCCN)NC(=O)[C@H](CCSC)NC(=O)[C@H](CO)NC(=O)[C@H](Cc1ccc(O)cc1)NC(=O)[C@H](Cc1c[nH]c2ccccc12)NC(=O)[C@H](CCCNC(=N)N)NC(=O)[C@@H](N)[C@@H](C)O)[C@@H](C)O)[C@@H](C)O)C(=O)N[C@H](C(=O)N1CCC[C@H]1C(=O)N[C@@H](Cc1ccccc1)C(=O)N[C@@H](CC(N)=O)C(=O)N[C@@H](CCCNC(=N)N)C(=O)N[C@@H](CC(C)C)C(=O)N[C@H](C(=O)N[C@H](C(=O)NCC(=O)N[C@@H](CCC(=O)O)C(=O)NCC(=O)N[C@@H](CCC(N)=O)C(=O)N[C@@H](CCC(N)=O)C(=O)N[C@@H](Cc1c[nH]cn1)C(=O)N[C@@H](Cc1c[nH]cn1)C(=O)N[C@@H](CC(C)C)C(=O)NCC(=O)NCC(=O)N[C@@H](C)C(=O)N[C@@H](CCCCN)C(=O)N[C@@H](CCC(N)=O)C(=O)N[C@@H](C)C(=O)NCC(=O)N[C@@H](CC(=O)O)C(=O)N[C@H](C(=O)O)C(C)C)[C@@H](C)CC)[C@@H](C)O)[C@@H](C)CC [D1 Peptide] (H-TRWYSMKKTTMKIIPFNRLTIGEGQQHHLGGAKQAGDV-OH)
binding to intact NDSK (intact NDSK): no measurable binding
blood concentration causing a 50% increase in thrombin time (thrombin time): about 4.4×10^-6 M
number of binding sites on thrombin-treated NDSK ([1]; Scatchard analysis (FIG. 6)): approximately 2.1
n (number of binding sites) ([1]; plot of 1/free ligand vs. total NDSK/bound protein): 2.2
delay of the onset of fibrin polymerization (fibrinogen): 8 min

— patent publication US4455290A, “Inhibition of fibrin polymerization by a peptide isolated from fibrin Fragment D1” (Research Corporation, priority 1981, dated 1984)
